Results taken from patent publication US20130231347A1, “METHOD OF TREATMENT WITH BRAF INHIBITOR” (GLAXOSMITHKLINE INTELLECTUAL PROPERTY (NO.2) LIMITED, priority 2010, published 2013).
Where two headings read alike, the source gives them in different places.

What was measured:
[1] = system: 16R5-5 (A375 F11 clone with acquired resistance to Compound A); test: Cell growth inhibition assay (Cell Titer Glo, 3 days); format: cell-based; settings: Homo sapiens, A-375, 72 h, 16R5-5: NRAS Q61Q/K, MEK1 P387P/S, single agent, read-out: IC50, Single Agent Effect, Compound A
Protocol: (§3) A clonal isolate, hereinafter referred to as “A375 F11”, was obtained from the A375 cell line (obtained from ATCC), based on increased sensitivity to a BRAF inhibitor. A375 F11 cells were exposed to increasing concentrations of Compound A and maintained in a final concentration of 1.26 μM or 1.6 μM. 12R5-3, 12R8-1, 12R8-3, 16R5-5, 16R6-2, 16R6-3 and 16R6-4 were derived as single cell clones from mixed populations of these A375 F11 cells selected to grow in the presence of Compound A. All cells were grown in RPMI 1640 medium containing 10% Fetal Bovine Serum (FBS).
(§4) All cells were cultured without compound, e.g. Compound A, for a minimum of 72 hours prior to cell plating. Cells were assayed in a 96-well tissue culture plate (NUNC 136102) of RPMI medium containing 10% FBS for all cells at 1,000 cells per well. Approximately 24 hours after plating, cells were exposed to ten, three-fold serial dilutions of compound or the combination of the two agents at a constant molar to molar ratio, e.g. 10:1 Compound A to Compound B, in RPMI media containing 10% FBS. Cells were incubated in the presence of compounds for 3 days. ATP levels were determined by adding Cell Titer Glo® (Promega) according to the manufacturer's protocol. Briefly, Cell Titer Glo® was added each plate, incubated for 30 minutes then luminescent signal was read on the SpectraMax L plate reader with a 0.5 sec integration time. Inhibition of cell growth was estimated after treatment with compound or combination of compounds for three days and comparing the Cell Titer Glo® signal to cells treated with vehicle (DMSO). Cell growth was calculated relative to vehicle (DMSO) treated control wells.
(§5) For single agent and combination treatments, cells were exposed to compounds at a fixed-dose-ratio, and dose response curves were fit to the experimental data and analyzed using regression models.

[2] = system: 12R8-3 (A375 F11 clone with acquired resistance to Compound A); test: as above; format: cell-based; settings: Homo sapiens, A-375, 72 h, 12R8-3: NRAS A146A/T, MEK1 WT, single agent, read-out: IC50, Single Agent Effect, Compound A
Protocol: as §3, §4, §5

[3] = system: 16R6-4 (A375 F11 clone with acquired resistance to Compound A); test: as above; format: cell-based; settings: Homo sapiens, A-375, 72 h, 16R6-4: NRAS Q61Q/K, A146A/T, MEK1 P387P/S, single agent, read-out: IC50, Single Agent Effect, Compound A
Protocol: as §3, §4, §5

[4] = system: 12R5-5 (A375 F11 clone with acquired resistance to Compound A); test: as above; format: cell-based; settings: Homo sapiens, A-375, 72 h, 12R5-5: NRAS WT, MEK1 HET 59delK, single agent, read-out: IC50, Single Agent Effect, Compound A
Protocol: as §3, §4, §5

[5] = system: YUSIT1 clones that acquired resistance to Compound A (BRAF V600K); test: Cell growth inhibition assay, resistant YUSIT1 clones; format: cell-based, human
From the text: The YUSIT1 melanoma cells were obtained from Yale Dermatology Cell Culture Facility.

[6] = system: A375 F11 clones that acquired resistance to Compound A; test: Cell growth inhibition assay, resistant A375 clones taken together; settings: Homo sapiens
Protocol: as §3, §4, §5

A375 F11 cells = test: Cell growth inhibition assay (Cell Titer Glo, 3 days); format: cell-based; settings: Homo sapiens, 72 h, F11: NRAS WT, MEK1 WT, single agent, mean ± std, read-out: IC50, Single Agent Effect, Compound A
Protocol: as §3, §4, §5

[7] = system: 12R5-1 (A375 F11 clone with acquired resistance to Compound A); test: as above; format: cell-based; settings: Homo sapiens, A-375, 72 h, 12R5-1: NRAS WT, MEK1 HET 59delK, single agent, read-out: IC50, Single Agent Effect, Compound A
Protocol: as §3, §4, §5

[8] = system: 12R8-1 (A375 F11 clone with acquired resistance to Compound A); test: as above; format: cell-based; settings: Homo sapiens, A-375, 72 h, 12R8-1: NRAS A146A/T, MEK1 WT, single agent, read-out: IC50, Single Agent Effect, Compound A
Protocol: as §3, §4, §5

[9] = system: phosphorylation of MEK, ERK, S6P and cyclin D1 protein in A375 cells; test: Western blot of signaling effects, parental cells; format: cell-based, human; settings: western blot (FIG. 10)
From the text: (§1) Phospho-AKT (T308), phospho-AKT (S473), AKT, ERK, phospho-S6P (S235/236), S6P, cyclin D1, phospho-MEK1/2 (S217/S221), MEK1/2, MEK1, MEK2, and cleaved PARP antibodies were purchased from Cell Signaling. Primary antibodies to GAPDH, RAF-1, BRAF, and ARAF were purchased from Santa Cruz Biotechnology. Diphospho-ERK1/2 (T202/Y204) antibodies were purchased from Sigma and p27kip1 antibodies were purchased from Epitomics. Anti-Mouse IRDYE® 800CW antibody was purchased from LI-COR Biosciences. Anti-rabbit ALEXA FLUOR® 680 antibodies were purchased from Invitrogen. Compound A, Compound B, Compound C, and PLX4032 (20) were synthesized by GlaxoSmithKline Research Labs and the structures are shown in FIG. 7.

[10] = system: 12R5-3 (A375 F11 clone with acquired resistance to Compound A); test: Cell growth inhibition assay (Cell Titer Glo, 3 days); format: cell-based; settings: Homo sapiens, A-375, 72 h, 12R5-3: NRAS A146A/T, MEK1 WT, single agent, read-out: IC50, Single Agent Effect, Compound A
Protocol: as §3, §4, §5

A375 cells, Mock = test: Proliferation of BacMAM-transduced A375 cells; format: cell-based; settings: Homo sapiens, A-375, read-out: IC50, inhibition of proliferation
Protocol: (§2) BacMAM constructs were generated using MEK1 cDNA and mutations in MEK1 were introduced using site directed mutagenesis. BacMAM virus particles were prepared as described in the supplemental methods. A375 cells were transduced with the indicated BacMAM virus. Forty-eight hours post transduction, cells were plated for subsequent proliferation and western blot analysis as described above.

[11] = system: A375 cells expressing MEK1Q56P; test: Proliferation of BacMAM-transduced A375 cells; format: cell-based; settings: Homo sapiens, A-375, read-out: IC50, inhibition of proliferation
Protocol: as §2

[12] = system: A375 cells expressing MEK1P124L; test: Proliferation of BacMAM-transduced A375 cells; format: cell-based; settings: Homo sapiens, A-375, read-out: IC50, inhibition of proliferation
Protocol: as §2

[13] = system: A375 cells expressing wild-type MEK1; test: Proliferation of BacMAM-transduced A375 cells; format: cell-based; settings: Homo sapiens, A-375, read-out: IC50, inhibition of proliferation
Protocol: as §2

[14] = system: A375 cells expressing MEK1C121S; test: Proliferation of BacMAM-transduced A375 cells; format: cell-based; settings: Homo sapiens, A-375, read-out: IC50, inhibition of proliferation
Protocol: as §2

[15] = system: A375 cells expressing MEK1K59del; test: Proliferation of BacMAM-transduced A375 cells; format: cell-based; settings: Homo sapiens, A-375, read-out: IC50, inhibition of proliferation
Protocol: as §2

[16] = system: A375 cells expressing MEK1F129L; test: Proliferation of BacMAM-transduced A375 cells; format: cell-based; settings: Homo sapiens, A-375, read-out: IC50, inhibition of proliferation
Protocol: as §2

[17] = system: 16R6-3 (A375 F11 clone with acquired resistance to Compound A); test: Cell growth inhibition assay (Cell Titer Glo, 3 days); format: cell-based; settings: Homo sapiens, A-375, 72 h, 16R6-3: NRAS A146A/T, MEK1 P387P/S, single agent, read-out: IC50, Single Agent Effect, Compound A
Protocol: as §3, §4, §5

[18] = system: 16R6-2 (A375 F11 clone with acquired resistance to Compound A); test: as above; format: cell-based; settings: Homo sapiens, A-375, 72 h, 16R6-2: NRAS Q61Q/K, MEK1 P387P/S, single agent, read-out: IC50, Single Agent Effect, Compound A
Protocol: as §3, §4, §5

[19] = system: phosphorylation of MEK, ERK, S6P in A375 clones resistant to Compound A; test: Western blot of signaling effects, resistant clones; format: cell-based, human; settings: western blot (FIG. 10)
From the text: as §1

## CC(C)(C)c1nc(-c2cccc(NS(=O)(=O)c3c(F)cccc3F)c2F)c(-c2ccnc(N)n2)s1 [Compound A, N-{3-[5-(2-Amino-4-pyrimidinyl)-2-(1,1-dimethylethyl)-1,3-thiazol-4-yl]-2-fluorophenyl}-2,6-difluorobenzenesulfonamide]
[1]
  IC50: > 10000 nM
[2]
  IC50: > 10000 nM
[3]
  IC50: > 10000 nM
[4]
  IC50: > 10000 nM
[5]; Homo sapiens, read-out: IC50, cell growth inhibition
  IC50: > 500 nM
[5]; YUSIT1 clones resistant to Compound A, single agent (FIG. 9)
  reduced sensitivity compared to the parental YUSIT1 cells: ≥ 38 fold
[6]; A-375, read-out: IC50, cell growth
  IC50: > 10000 nM
[6]; A-375, read-out: IC50, cell growth inhibition, single agent
  IC50: > 10000 nM
[6]; A-375, read-out: IC50 of the combination, for Compound A
  IC50: 178 to 392 nM
A375 F11 cells
  IC50: 24 ± 17 nM
[7]
  IC50: > 10000 nM
[8]
  IC50: > 10000 nM
[9]
  decrease of cyclin D1 protein levels: more than 65%
  inhibition of phosphorylation of MEK, ERK, and S6P: more than 75%
[10]
  IC50: > 10000 nM
A375 cells, Mock
  IC50: 30 nM
[11]
  IC50: ≥ 420 nM
[12]
  IC50: 84 nM
[13]
  IC50: 28 nM
[14]
  IC50: ≥ 330 nM
[15]
  IC50: 179 nM
[16]
  IC50: 140 nM
[17]
  IC50: > 10000 nM
[18]
  IC50: > 10000 nM
[19]
  reduction of ERK phosphorylation: less than 50%
  reduction of S6P phosphorylation: < 25%
